# Literature values as cited in patent US20160051468A1, “Compositions for Prevention and/or Treatment of Gastrointestinal Imbalances in Digestive Disorders” (BRIGHT DRINKS INC., priority 2013, published 2016).
# Experiments:
# NF-κB [1] = settings: human colon carcinoma cell line
# TNFα = settings: LPS-stimulated macrophage cell line; dose-response fashion
# NF-κB [2] = settings: human IEC lines; by inhibiting I-κB kinase activity
# [3] = in vitro, compared with other tea catechins
# DNA = settings: hydroxyl radical attack, in vitro
compound,measurement,setting,value
CCC(=O)O [Propionate],"suppression of NF-κB reporter activity, relative potency",NF-κB [1],equipotent
"O=C(O[C@@H]1Cc2c(O)cc(O)cc2O[C@@H]1c1cc(O)c(O)c(O)c1)c1cc(O)c(O)c(O)c1 [EGCG, epigallocatechin gallate]",minimum-inhibitory-concentration (MIC) for 90% of isolates,H. pylori; 110 mostly clinical isolates of H. pylori,32 μg per mL
same,concentration with bactericidal effect,H. pylori; H. pylori in vitro,4 times the MIC
same,concentration with bacteriostatic effect,H. pylori; H. pylori in vitro,2 times the MIC
same,TNFα protein levels,TNFα,significant decrease
same,NF-κB activation,NF-κB [2],blocking NF-κB activation
same,scavenging of superoxide anion and hydroxyl radical,[3],most effective of all catechins
same,reduction of oxidative damage sustained by DNA,DNA,highly active
CC(=O)O [acetate],"suppression of NF-κB reporter activity, relative potency",NF-κB [1],slightly less effective
